Read-outs that look alike come from different tables or passages of the source. Bounds are passed on as bounds.

The values that follow come from patent US20230009323A1, “COMPOUNDS AND METHODS FOR THE TREATMENT OF CRYPTOSPORIDIOSIS” (The Broad Institute, Inc., priority 2019, published 2023).

For the test, the system named is C. parvum Iowa isolate (Bunch Grass Farm). The test is described as follows: C. parvum Iowa isolate (Bunch Grass Farm) growth in HCT-8 cells, high-content microscopy. The following applies: Cryptosporidium parvum. The format is cell-based. Here is the method:
A high-content microscopy assay was used to measure activity of compounds against C. parvum grown in the human adenocarcinoma cell line HCT-8 (ATCC) as disclosed in Bessoff, K., et al., Antimicrobial agents and chemotherapy 57, 1804-1814, doi:10.1128/AAC.02460-12 (2013), hereby incorporated by reference in its entirety. HCT-8 cells were cultured in 384-well clear-bottomed plates in 50 μL per well of RPMI 1640 medium ([…]), 120 U·mL^−1 penicillin, and 120 μg·mL^−1 streptomycin (ATCC) at 37° C. under 5% CO2. For compound screening and follow-up SAR studies, confluent cell monolayers were infected with C. parvum Iowa isolate oocysts [Bunch Grass Farm (Deary, Id.); ˜5,500 oocysts per well] after inducing excystation by treatment for 10 min at 37° C. with 10 mM HCl and then 10 min at 16° C. in 2 mM sodium taurocholate. Compounds were added at the indicated concentrations 3 h after monolayer infection. After incubation (37° C., 5% CO2) for 48 h, the cells were washed three times with PBS containing 111 mM D-Galactose and fixed by adding an equal volume of 8% formaldehyde in PBS. Cell monolayers were then prepared for microscopy by permeabilizing with 0.1% Triton X-100, washing three times with PBS with 0.1% Tween 20, blocking with 4% bovine serum albumin (BSA) in PBS for 2 h at 37° C. or 4° C. overnight, and staining parasitophorous vacuoles with 1.33 μg·mL^−1 of fluorescein-labeled Vicia villosa lectin (Vector Laboratories) diluted in 1% BSA in PBS with 0.1% Tween 20 for 1 h at 37° C. DNA was then stained by adding Hoechst 33258 (AnaSpec) at a final concentration of 0.09 mM diluted in water, followed by washing five times with PBS containing 0.1% Tween 20. Images were acquired using a Nikon Eclipse TE2000 epifluorescence microscope with an automated stage that was programmed using NIS-Elements Advanced Research software (Nikon) to focus on the center of each well and take a 3×3 composite image using an EXi Blue fluorescence microscopy camera (QImaging) with a 20× objective (numerical aperture 0.45). Nucleus and parasite images were exported separately as tif files and analyzed using NIH ImageJ and previously reported macros, and data analysis and graphing were done using GraphPad Prism software, version 6.01. […]

As a reminder, the EC50 is the concentration that produces a half-maximal response. As to `COc1ccc(NC(=O)N2CCCCN3[C@H](CN(C)C)[C@H](c4ccc(C#Cc5ccccc5)cc4)[C@@H]3C2)cc1` [Compound 11, (8R,9S,10S)-10-((dimethylamino)methyl)-N-(4-methoxyphenyl)-9-(4-(phenylethynyl)phenyl)-1,6-diazabicyclo[6.2.0]decane-6-carboxamide], the EC50 is 9 nM (read-out: C. parvum (Iowa) (1% FBS) BGF EC50); 73 nM (read-out: C. parvum (Iowa) (10% FBS) BGF EC50); below 73 nM (serum not given, read-out: C. parvum EC50).
